Measured values as given in ChEMBL document CHEMBL5380810, “Scaffold Hybrid of the Natural Product Tanshinone I with Piperidine for the Discovery of a Potent NLRP3 Inflammasome Inhibitor” (J Med Chem, 2023).
Active and inactive are the calls of the source. The calls are words filed in the database; no cut-off is given here.

Legend:
Peritoneal macrophage [1] = test: Antiinflammatory activity against LPS-stimulated mouse peritoneal macrophage assessed as TNF-alpha level at 2 uM treated for 3 hrs followed by ATP addition measured after 30 mins by ELISA method relative to control; type: functional; conditions: time 3.5 hrs
Peritoneal macrophage [2] = test: Antiinflammatory activity against LPS-stimulated mouse peritoneal macrophage assessed as IL-6 level at 2 uM treated for 3 hrs followed by ATP addition measured after 30 mins by ELISA method relative to control; type: functional; conditions: time 3.5 hrs
Peritoneal macrophage [3] = test: Antiinflammatory activity against LPS-stimulated mouse peritoneal macrophage assessed as IL-1beta level at 2 uM treated for 3 hrs followed by ATP addition measured after 30 mins by ELISA method relative to control; type: functional; conditions: time 3.5 hrs
Peritoneal macrophage [4] = test: Cytotoxicity against mouse peritoneal macrophages at 4 uM incubated for 3.5 hrs by MTT assay; type: toxicity, cell-based
Peritoneal macrophage [5] = test: Antiinflammatory activity against LPS-stimulated mouse peritoneal macrophage assessed as IL-6 level at 2 uM treated for 3 hrs followed by ATP addition measured after 30 mins by ELISA method; type: functional, cell-based; conditions: time 3.5 hrs

SMILES: Cc1cccc2c3c(ccc12)-c1oc2c(c1C(=O)C3=O)CCN(CC(=O)N(C)C)C2
- Activity (Peritoneal macrophage [1]): 52%
- Activity (Peritoneal macrophage [2]): 11%
- Activity (Peritoneal macrophage [3]): 71%
- Activity (Peritoneal macrophage [4]): Non-Toxic

SMILES: Cc1cccc2c3c(ccc12)-c1oc2c(c1C(=O)C3=O)CCN(CC(=O)N1CCN(C)CC1)C2
- Activity (Peritoneal macrophage [1]): 35%
- Activity (Peritoneal macrophage [5]): inactive
- Activity (Peritoneal macrophage [3]): 77%
- Activity (Peritoneal macrophage [4]): Non-Toxic

SMILES: Cc1cccc2c3c(ccc12)-c1oc2c(c1C(=O)C3=O)CCN(CCCn1ccnc1)C2
- Activity (Peritoneal macrophage [1]): 17%
- Activity (Peritoneal macrophage [5]): inactive
- Activity (Peritoneal macrophage [3]): 95%
- Activity (Peritoneal macrophage [4]): Non-Toxic

SMILES: Cc1cccc2c3c(ccc12)-c1oc2c(c1C(=O)C3=O)CCNC2
- Activity (Peritoneal macrophage [1]): 22%
- Activity (Peritoneal macrophage [2]): 13%
- Activity (Peritoneal macrophage [3]): 16%
- Activity (Peritoneal macrophage [4]): Non-Toxic

SMILES: CNC(=O)[C@H](C)N1CCc2c(oc3c2C(=O)C(=O)c2c-3ccc3c(C)cccc23)C1
- Activity (Peritoneal macrophage [1]): 31%
- Activity (Peritoneal macrophage [5]): inactive
- Activity (Peritoneal macrophage [3]): 96%
- Activity (Peritoneal macrophage [4]): Non-Toxic

SMILES: COC(=O)[C@H](Cc1ccccc1)N1CCc2c(oc3c2C(=O)C(=O)c2c-3ccc3c(C)cccc23)C1
- Activity (Peritoneal macrophage [1]): 24%
- Activity (Peritoneal macrophage [5]): inactive
- Activity (Peritoneal macrophage [3]): 23%
- Activity (Peritoneal macrophage [4]): Non-Toxic

SMILES: Cc1cccc2c3c(ccc12)-c1oc2c(c1C(=O)C3=O)CCN(CCCN1CC[C@@H](O)C1)C2
- Activity (Peritoneal macrophage [1]): 33%
- Activity (Peritoneal macrophage [5]): inactive
- Activity (Peritoneal macrophage [3]): 92%
- Activity (Peritoneal macrophage [4]): Non-Toxic

SMILES: Cc1cccc2c3c(ccc12)-c1oc2c(c1C(=O)C3=O)CCN(CCN1CCN(C)CC1)C2
- Activity (Peritoneal macrophage [1]): 19%
- Activity (Peritoneal macrophage [5]): inactive
- Activity (Peritoneal macrophage [3]): 61%
- Activity (Peritoneal macrophage [4]): Non-Toxic

SMILES: Cc1cccc2c3c(ccc12)-c1oc2c(c1C(=O)C3=O)CCN(CCN(C)C)C2
- Activity (Peritoneal macrophage [1]): 20%
- Activity (Peritoneal macrophage [2]): 3%
- Activity (Peritoneal macrophage [3]): 88%
- Activity (Peritoneal macrophage [4]): Non-Toxic

SMILES: Cc1cccc2c3c(ccc12)-c1oc2c(c1C(=O)C3=O)CCN(CCC(=O)N1CCOCC1)C2
- Activity (Peritoneal macrophage [1]): 10%
- Activity (Peritoneal macrophage [5]): inactive
- Activity (Peritoneal macrophage [3]): 92%
- Activity (Peritoneal macrophage [4]): Non-Toxic

SMILES: Cc1cccc2c3c(ccc12)-c1oc2c(c1C(=O)C3=O)CCN(CCCN1CCCC1)C2
- Activity (Peritoneal macrophage [1]): 13%
- Activity (Peritoneal macrophage [2]): 31%
- Activity (Peritoneal macrophage [3]): 94%
- Activity (Peritoneal macrophage [4]): Non-Toxic

SMILES: Cc1cccc2c3c(ccc12)-c1oc2c(c1C(=O)C3=O)CCN(CCCN1CCN(C)CC1)C2
- Activity (Peritoneal macrophage [1]): 51%
- Activity (Peritoneal macrophage [5]): inactive
- Activity (Peritoneal macrophage [3]): 95%
- Activity (Peritoneal macrophage [4]): Non-Toxic

SMILES: Cc1cccc2c3c(ccc12)-c1oc2c(c1C(=O)C3=O)CCN(CCCN1CCC(N3CCOCC3)CC1)C2
- Activity (Peritoneal macrophage [1]): 40%
- Activity (Peritoneal macrophage [5]): inactive
- Activity (Peritoneal macrophage [3]): 88%
- Activity (Peritoneal macrophage [4]): Non-Toxic

SMILES: Cc1cccc2c3c(ccc12)-c1oc2c(c1C(=O)C3=O)CCN(CCn1ccnc1)C2
- Activity (Peritoneal macrophage [1]): 29%
- Activity (Peritoneal macrophage [5]): inactive
- Activity (Peritoneal macrophage [3]): 96%
- Activity (Peritoneal macrophage [4]): Non-Toxic

SMILES: Cc1cccc2c3c(ccc12)-c1oc2c(c1C(=O)C3=O)CCN(CCS(C)(=O)=O)C2
- Activity (Peritoneal macrophage [1]): 46%
- Activity (Peritoneal macrophage [5]): inactive
- Activity (Peritoneal macrophage [3]): 90%
- Activity (Peritoneal macrophage [4]): Non-Toxic

SMILES: Cc1cccc2c3c(ccc12)-c1oc2c(c1C(=O)C3=O)CCN([C@@H](C)CO)C2
- Activity (Peritoneal macrophage [1]): 40%
- Activity (Peritoneal macrophage [5]): inactive
- Activity (Peritoneal macrophage [3]): 49%
- Activity (Peritoneal macrophage [4]): Non-Toxic

SMILES: CCCCN1CCc2c(oc3c2C(=O)C(=O)c2c-3ccc3c(C)cccc23)C1
- Activity (Peritoneal macrophage [1]): 14%
- Activity (Peritoneal macrophage [5]): inactive
- Activity (Peritoneal macrophage [3]): 38%
- Activity (Peritoneal macrophage [4]): Non-Toxic

SMILES: COC(=O)[C@H](C)N1CCc2c(oc3c2C(=O)C(=O)c2c-3ccc3c(C)cccc23)C1
- Activity (Peritoneal macrophage [1]): 25%
- Activity (Peritoneal macrophage [5]): inactive
- Activity (Peritoneal macrophage [3]): 65%
- Activity (Peritoneal macrophage [4]): Non-Toxic

SMILES: CC(C)(O)c1coc(S(=O)(=O)NC(=O)Nc2c3c(cc4c2CCC4)CCC3)c1
- Activity (Peritoneal macrophage [1]): 12%
- Activity (Peritoneal macrophage [5]): inactive
- Activity (Peritoneal macrophage [3]): 98%
